Source: patent EP0183129A1, “Quinolonecarboxylic acid derivatives” (KYORIN PHARMACEUTICAL CO., LTD., priority 1984, dated 1986)
Converted amounts (≈) assume the structure as drawn.

Tests used:
[1] = system: Pseudomonas aeruginosa V-1; test: In vitro antibacterial activity, MIC (standard strain); format: cell-based; details: Pseudomonas aeruginosa, V1
[2] = system: S. epidermidis IID 866; test: as above; format: cell-based; details: Staphylococcus epidermidis, IID866
[3] = system: Escherichia coli NIHJ JC-2; test: as above; format: cell-based; details: Escherichia coli, NIHJJC2
[4] = system: Bacillus subtilis PCI 219; test: as above; format: cell-based; details: Bacillus subtilis, PCI219
[5] = system: Enterobacter cloacae IID 977; test: as above; format: cell-based; details: Enterobacter cloacae, IID977
[6] = system: K. pneumoniae 1-220S; test: as above; format: cell-based; details: Klebsiella pneumoniae, 1220S
[7] = system: Acinetobacter anitratus IID 876; test: as above; format: cell-based; details: Acinetobacter calcoaceticus, IID876
[8] = system: Morganella morganii IID 602; test: as above; format: cell-based; details: Morganella morganii, IID602
[9] = system: Proteus vulgaris IFO 3167; test: as above; format: cell-based; details: Proteus vulgaris, IFO3167
[10] = system: S. pneumoniae IID 552; test: as above; format: cell-based; details: Streptococcus pneumoniae, IID552
[11] = system: Alcaligenes faecalis 0104002; test: as above; format: cell-based; details: Alcaligenes faecalis, 0104002
[12] = system: S. faecalis 214; test: In vitro antibacterial activity, MIC (clinical isolates); format: cell-based; details: Enterococcus faecalis, 214
[13] = system: S. faecalis 402; test: as above; format: cell-based; details: Enterococcus faecalis, 402
[14] = system: B. fragilis 0558; test: In vitro antibacterial activity, MIC (standard strain); format: cell-based, Bacteroides fragilis; details: Bacteroides fragilis, 0558
[15] = system: S. faecalis 401; test: In vitro antibacterial activity, MIC (clinical isolates); format: cell-based; details: Enterococcus faecalis, 401
[16] = system: Staphylococcus aureus 209 P; test: In vitro antibacterial activity, MIC (standard strain); format: cell-based; details: Staphylococcus aureus, 209P
[17] = system: S. pneumoniae 2054; test: In vitro antibacterial activity, MIC (clinical isolates); format: cell-based; details: Streptococcus pneumoniae, 2054
[18] = system: S. agalactiae 4342; test: as above; format: cell-based; details: Streptococcus agalactiae, 4342
[19] = system: Serratia marcescens IID 618; test: In vitro antibacterial activity, MIC (standard strain); format: cell-based; details: Serratia marcescens, IID618
[20] = system: Shigella sonnei IID 969; test: as above; format: cell-based; details: IID969, 10^6 cells/ml
Experimental: Experiment-1 In vitro antibacterial activity
The in vitro antibacterial activity against gram-positive and gram-negative bacteria has been investivated.
The minimum inhibitory concentration (MIC) was determined in accordance with the method recommended by Japan Society of Chemotherapy.

[21] = system: Klebsiella pneumoniae KY(GN)6445; test: as above; format: cell-based; details: Klebsiella pneumoniae
[22] = system: E. coli ATCC 10536; test: as above; format: cell-based; details: Escherichia coli, ATCC10536
[23] = system: Bacteroides fragilis GM 7000; test: as above; format: cell-based; details: Bacteroides fragilis, GM7000
[24] = system: S. pyogenes 4372; test: In vitro antibacterial activity, MIC (clinical isolates); format: cell-based; details: Streptococcus pyogenes, 4372
[25] = system: P. mirabilis IID 994; test: In vitro antibacterial activity, MIC (standard strain); format: cell-based; details: Proteus mirabilis, IID994
[26] = system: S. pneumoniae 3227; test: In vitro antibacterial activity, MIC (clinical isolates); format: cell-based; details: Streptococcus pneumoniae, 3227
[27] = system: Citrobacter freundii IID 976; test: In vitro antibacterial activity, MIC (standard strain); format: cell-based; details: Citrobacter freundii, IID976
[28] = system: Salmonella entritidis IID 604; test: as above; format: cell-based; details: Salmonella, IID604
[29] = system: S. pyogenes 4340; test: In vitro antibacterial activity, MIC (clinical isolates); format: cell-based; details: Streptococcus pyogenes, 4340
[30] = system: P. aeruginosa IFO 12689; test: In vitro antibacterial activity, MIC (standard strain); format: cell-based, Pseudomonas aeruginosa; details: Pseudomonas aeruginosa, IFO12689
[31] = system: S. agalactiae 4470; test: In vitro antibacterial activity, MIC (clinical isolates); format: cell-based; details: Streptococcus agalactiae, 4470
[32] = system: S. marcescens GN 7577; test: In vitro antibacterial activity, MIC (standard strain); format: cell-based; details: Serratia marcescens, GN7577
[33] = system: C. ramosum; test: as above; format: cell-based; details: Thomasclavelia ramosa
[34] = system: S. pyogenes IID 692; test: as above; format: cell-based; details: Streptococcus pyogenes, IID692
[35] = system: P. aeruginosa IID 1210; test: as above; format: cell-based; details: Pseudomonas aeruginosa, IID1210
[36] = system: S. aureus IID 670 (Terajima); test: as above; format: cell-based, Staphylococcus aureus; details: Staphylococcus aureus, IID670
[37] = system: S. agalactiae 4049; test: In vitro antibacterial activity, MIC (clinical isolates); format: cell-based; details: Streptococcus agalactiae, 4049
[38] = system: Yersinia enterocolitica IID 981; test: In vitro antibacterial activity, MIC (standard strain); format: cell-based; details: Yersinia enterocolitica, IID981
[39] = system: S. pyogenes 3107; test: In vitro antibacterial activity, MIC (clinical isolates); format: cell-based; details: Streptococcus pyogenes, 3107
[40] = system: S. agalactiae 4394; test: as above; format: cell-based; details: Streptococcus agalactiae, 4394
[41] = system: S. faecalis IID 682; test: In vitro antibacterial activity, MIC (standard strain); format: cell-based; details: Enterococcus faecalis, IID682
[42] = system: E. coli ML 4707; test: as above; format: cell-based; details: Escherichia coli, ML4707
[43] = system: S. faecalis 49; test: In vitro antibacterial activity, MIC (clinical isolates); format: cell-based; details: Enterococcus faecalis, 49
[44] = system: S. pneumoniae 15; test: as above; format: cell-based; details: Streptococcus pneumoniae, 15
[45] = system: S. pneumoniae 2950; test: as above; format: cell-based; details: Streptococcus pneumoniae, 2950
[46] = system: B. fragilis 25285; test: In vitro antibacterial activity, MIC (standard strain); format: cell-based, Bacteroides fragilis; details: Bacteroides fragilis, 25285
[47] = system: S. pyogenes 3130; test: In vitro antibacterial activity, MIC (clinical isolates); format: cell-based; details: Streptococcus pyogenes
[48] = system: S. agalactiae 4468; test: as above; format: cell-based; details: Streptococcus agalactiae, 4468
[49] = system: Clostridium perfringens KYA 13123; test: microbe, parasite or virus in culture; format: cell-based; details: KYA13123
[50] = system: S. aureus Smith; test: In vitro antibacterial activity, MIC (standard strain); format: cell-based, Staphylococcus aureus; details: Staphylococcus aureus; S. aureus Smith; 10^6 cells/ml; standard strain
[51] = system: Fusobacterium varium KYA 8501; test: as above; format: cell-based; details: Fusobacterium varium, KYA8501
[52] = system: S. pyogenes 3102; test: In vitro antibacterial activity, MIC (clinical isolates); format: cell-based; details: Streptococcus pyogenes, 3102
[53] = system: Streptococcus pyogenes S-8; test: In vitro antibacterial activity, MIC (standard strain); format: cell-based; details: Streptococcus pyogenes, S8
[54] = system: S. agalactiae 4368; test: In vitro antibacterial activity, MIC (clinical isolates); format: cell-based; details: Streptococcus agalactiae, 4368
[55] = system: M. pneumoniae Mac.; test: In vitro antibacterial activity against Mycoplasma, MIC; format: cell-based; details: Mycoplasmoides pneumoniae, 120 h
Source text: Experiment-3 In vitro antibacterial activity against Mycoplasma

Compound: NCC1CCN(c2cc3c(cc2F)c(=O)c(C(=O)O)cn3C2CC2)C1 (stereo not drawn) [Example 6, 7-(3-Aminomethyl-l-pyrrolidinyl)-l-cyclopropyl-6-fluoro-l,4-dihydro-4-oxo-3-quinolinecarboxylic acid]
- MIC [1]: 0.78 µg/mL (≈ 2.26 µM)
- MIC [2]: 0.05 µg/mL (≈ 0.145 µM)
- MIC [3]: 0.05 µg/mL (≈ 0.145 µM)
- MIC [4]: 0.05 µg/mL (≈ 0.145 µM)
- MIC [5]: 0.2 µg/mL (≈ 0.579 µM)
- MIC [6]: 0.2 µg/mL (≈ 0.579 µM)
- MIC [7]: 0.78 µg/mL (≈ 2.26 µM)
- MIC [8]: 0.39 µg/mL (≈ 1.13 µM)
- MIC [9]: 0.05 µg/mL (≈ 0.145 µM)
- MIC [10]: 0.1 µg/mL (≈ 0.29 µM)
- MIC [11]: 1.56 µg/mL (≈ 4.52 µM)
- MIC [12]: 0.39 µg/mL (≈ 1.13 µM)
- MIC [13]: 0.39 µg/mL (≈ 1.13 µM)
- MIC [14]: 6.25 µg/mL (≈ 18.1 µM)
- MIC [15]: 0.39 µg/mL (≈ 1.13 µM)
- MIC [16]: 0.05 µg/mL (≈ 0.145 µM)
- MIC [17]: 0.39 µg/mL (≈ 1.13 µM)
- MIC [18]: 0.2 µg/mL (≈ 0.579 µM)
- MIC [19]: 0.39 µg/mL (≈ 1.13 µM)
- MIC [20]: 0.05 µg/mL (≈ 0.145 µM)
- MIC [21]: 0.1 µg/mL (≈ 0.29 µM)
- MIC [22]: 0.05 µg/mL (≈ 0.145 µM)
- MIC [23]: 6.25 µg/mL (≈ 18.1 µM)
- MIC [24]: 0.1 µg/mL (≈ 0.29 µM)
- MIC [25]: 0.1 µg/mL (≈ 0.29 µM)
- MIC [26]: 0.2 µg/mL (≈ 0.579 µM)
- MIC [27]: 0.1 µg/mL (≈ 0.29 µM)
- MIC [28]: 0.2 µg/mL (≈ 0.579 µM)
- MIC [29]: 0.05 µg/mL (≈ 0.145 µM)
- MIC [30]: 0.78 µg/mL (≈ 2.26 µM)
- MIC [31]: 0.2 µg/mL (≈ 0.579 µM)
- MIC [32]: 3.13 µg/mL (≈ 9.06 µM)
- MIC [33]: 12.5 µg/mL (≈ 36.2 µM)
- MIC [34]: 0.2 µg/mL (≈ 0.579 µM)
- MIC [35]: 3.13 µg/mL (≈ 9.06 µM)
- MIC [36]: 0.05 µg/mL (≈ 0.145 µM)
- MIC [37]: 0.39 µg/mL (≈ 1.13 µM)
- MIC [38]: 0.2 µg/mL (≈ 0.579 µM)
- MIC [39]: 0.05 µg/mL (≈ 0.145 µM)
- MIC [40]: 0.39 µg/mL (≈ 1.13 µM)
- MIC [41]: 0.39 µg/mL (≈ 1.13 µM)
- MIC [42]: 0.05 µg/mL (≈ 0.145 µM)
- MIC [43]: 0.39 µg/mL (≈ 1.13 µM)
- MIC [44]: 0.2 µg/mL (≈ 0.579 µM)
- MIC [45]: 0.2 µg/mL (≈ 0.579 µM)
- MIC [46]: 12.5 µg/mL (≈ 36.2 µM)
- MIC [47]: 0.05 µg/mL (≈ 0.145 µM)
- MIC [48]: 0.2 µg/mL (≈ 0.579 µM)
- MIC [49]: 3.13 µg/mL (≈ 9.06 µM)
- MIC [50]: 0.2 µg/mL (≈ 0.579 µM)
- MIC [51]: 25 µg/mL (≈ 72.4 µM)
- MIC [52]: 0.05 µg/mL (≈ 0.145 µM)
- MIC [53]: 0.1 µg/mL (≈ 0.29 µM)
- MIC [54]: 0.2 µg/mL (≈ 0.579 µM)

Compound: CN(C)[C@@H]1C(O)=C(C(N)=O)C(=O)[C@@]2(O)C(O)=C3C(=O)c4c(O)cccc4[C@@](C)(O)[C@H]3C[C@@H]12 [TC, Tetracycline, reference compound]
- MIC [55]: 0.78 µg/mL (≈ 1.76 µM)
